Results published in PMC11528125, “Characterization of O-methyltransferases in the biosynthesis of phenylphenalenone phytoalexins based on the telomere-to-telomere gapless genome of Musella lasiocarpa” (Horticulture Research, 2024).

B1: Ml04G2958 (Musella lasiocarpa) (protein)
chain: MAGPHVVDAVGEHSEPYKSASRAHHHHYRHHSSLPLRTMGSVRAAAAALQPSPEEDEEACLQAGQLVSSSVLPMTLKAAIELQLLEIIVGAGPGARLSPADVAAQLPTTNPQAAAMVDRILRLLAAYGIVGCSVEAGPDGRPCRKYGAAPVCKYLTRNEDGVSFAALSLMNQDKVLMESWYHLKDAVLEGGIPFNKAYGMTAFEYHGTDPRFNKVFNEGMRSHSIIITKKLLQVYRGFDDVKVLVDVGGGTGATLHMITSTHPHILGINYDLPHVISDAPPLPGVEHVSGDMFESVPGGDAILMKWILHDWSDEHCAKILKNCWKALPEKGKLIAVECVLPVVPEPSLRTQSVCHVDLIMLAHNPGGKERTEMEFEELAKQAGFSGFKPTYVYASTWALEFTK
notes: MBP fusion from pMAL-c4x (EcoRI/SalI), E. coli BL21 (DE3), purified

Tests used:
Assay in all cases: MTase-Glo methyltransferase assay (SAH luminescence), Michaelis-Menten fit
Format in all cases: biochemical, Musella lasiocarpa
Ml01G0494 = tested on: T1, Ml01G0494; settings: 2 mM SAM, 45°C, 30 min; Tris-HCl; read-out: apparent Km
T1 construct: MBP fusion from pMAL-c4x (EcoRI/SalI), E. coli BL21 (DE3), purified

Ml08G0855 = tested on: T2, Ml08G0855; settings: 2 mM SAM, 45°C, 30 min; Tris-HCl; read-out: apparent Km
T2 construct: MBP fusion from pMAL-c4x (EcoRI/SalI), E. coli BL21 (DE3), purified

[1] = substrate: O=C1C(O)=Cc2cccc3ccc(-c4ccc(O)cc4)c1c23; settings: 2 mM SAM, 45°C, 30 min, Tris-HCl
Excerpt: (§1) MTase-Glo methyltransferase assay (SAH luminescence), Michaelis-Menten fit on Ml04G2958 | The apparent Kcat/Km values of Ml01G0494, Ml04G2958, and Ml08G0855 for MLT3 | the apparent Kcat/Km values of Ml01G0494, Ml04G2958, and Ml08G0855 for MLT4

[2] = substrate: O=C1C(O)=Cc2cccc3ccc(-c4ccccc4)c1c23; settings: 2 mM SAM, 45°C, 30 min, Tris-HCl
Excerpt: as §1

| Molecule | Km (Ml01G0494) | Km (Ml08G0855) | Km [1] | kcat [1] | Km [2] | kcat [2] |
| --- | --- | --- | --- | --- | --- | --- |
| O=C1C(O)=Cc2cccc3ccc(-c4ccc(O)cc4)c1c23 [MLT3] | 60.4 ± 16.6 µM | 111 ± 27.4 µM | – | – | – | – |
| O=C1C(O)=Cc2cccc3ccc(-c4ccccc4)c1c23 [MLT4] | 8.51 ± 0.13 µM | 37.3 ± 10.7 µM | – | – | – | – |
| O=C1C(O)=Cc2c(-c3ccc(O)c(O)c3)ccc3cccc1c23 [MLT9] | 971 µM | 81.9 µM | – | – | – | – |
| B1 | – | – | 69.94 ± 14.71 µM | 0.0005 s⁻¹ | 5.30 ± 0.68 µM | 0.00033 s⁻¹ |
